Laboratory results: the supplement of paper PMC10307832

Tests used:
Assay in all cases: relative viability (nuclei count vs DMSO), 5 days (fraction); higher = more cells survive
Pazopanib + Bortezomib = compound: Cc1ccc(Nc2nccc(N(C)c3ccc4c(C)n(C)nc4c3)n2)cc1S(N)(=O)=O [Pazopanib] + CC(C)C[C@H](NC(=O)[C@H](Cc1ccccc1)NC(=O)c1cnccn1)B(O)O [Bortezomib] (partner 0.002 µM)
Procedure, shortened: (§1)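 The day after seeding in 1536-well plates, lung cancer cell lines were treated by pin tool with a single drug, or with a fixed anchor-drug dose together with five library-drug doses (not always all listed) in √10 steps. After 5 days, a combined fix-and-stain solution (final 0.05% Triton X-100, 1% formaldehyde, 1 ug/ml Hoechst) was added. Nuclei counted on 4× images gave relative viability as treated counts over vehicle counts, reported as the median of duplicate plates.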

Pazopanib + Foretinib = compound: Cc1ccc(Nc2nccc(N(C)c3ccc4c(C)n(C)nc4c3)n2)cc1S(N)(=O)=O [Pazopanib] + COc1cc2c(Oc3ccc(NC(=O)C4(C(=O)Nc5ccc(F)cc5)CC4)cc3F)ccnc2cc1OCCCN1CCOCC1 [Foretinib] (partner 0.25 µM)
Procedure, shortened: as §1

Ponatinib + Tozasertib = compound: Cc1ccc(C(=O)Nc2ccc(CN3CCN(C)CC3)c(C(F)(F)F)c2)cc1C#Cc1cnc2cccnn12 [Ponatinib] + Cc1cc(Nc2cc(N3CCN(C)CC3)nc(Sc3ccc(NC(=O)C4CC4)cc3)n2)n[nH]1 [Tozasertib] (partner 0.1 µM)
Procedure, shortened: as §1

Pazopanib + Linsitinib = compound: Cc1ccc(Nc2nccc(N(C)c3ccc4c(C)n(C)nc4c3)n2)cc1S(N)(=O)=O [Pazopanib] + C[C@]1(O)C[C@@H](c2nc(-c3ccc4ccc(-c5ccccc5)nc4c3)c3c(N)nccn32)C1 [Linsitinib] (partner 1 µM)
Procedure, shortened: as §1

Cell Line	relative viability (Pazopanib + Bortezomib; first compound 0.01 µM)	relative viability (Pazopanib + Bortezomib; first compound 0.03162 µM)	relative viability (Pazopanib + Bortezomib; first compound 0.1 µM)	relative viability (Pazopanib + Bortezomib; first compound 0.3162 µM)	relative viability (Pazopanib + Bortezomib; first compound 1 µM)	relative viability (Pazopanib + Foretinib; first compound 0.01 µM)	relative viability (Pazopanib + Foretinib; first compound 0.03162 µM)	relative viability (Pazopanib + Foretinib; first compound 0.1 µM)	relative viability (Pazopanib + Foretinib; first compound 0.3162 µM)	relative viability (Pazopanib + Foretinib; first compound 1 µM)	relative viability (Ponatinib + Tozasertib; first compound 0.002 µM)	relative viability (Ponatinib + Tozasertib; first compound 0.006325 µM)	relative viability (Ponatinib + Tozasertib; first compound 0.06325 µM)	relative viability (Ponatinib + Tozasertib; first compound 0.2 µM)	relative viability (Pazopanib + Linsitinib; first compound 0.01 µM)	relative viability (Pazopanib + Linsitinib; first compound 0.03162 µM)	relative viability (Pazopanib + Linsitinib; first compound 0.1 µM)	relative viability (Pazopanib + Linsitinib; first compound 0.3162 µM)	relative viability (Pazopanib + Linsitinib; first compound 1 µM)
NCI-H1437	0.617	0.537	0.428	0.518	0.583	1.33	1.25	1.16	1.21	1.31	0.363	0.419	0.411	0.393	1.04	1.07	0.973	1.04	1.05
NCI-H1651	0.753	0.954	0.965	0.97	0.916	0.836	0.734	0.817	0.773	0.895	0.685	0.662	0.563	0.531	1.11	0.901	0.886	0.982	1.08
NCI-H1666	0.707	0.829	0.77	1.01	1.35	0.998	1.01	0.995	1.02	1.1	0.707	0.627	0.669	0.548	1.15	0.857	0.909	0.767	1.07
NCI-H1734	0.846	0.897	1.01	0.996	0.935	0.829	0.948	0.873	0.893	0.926	0.267	0.293	0.217	0.26	0.823	0.963	0.905	0.942	0.933
NCI-H1755	0.883	0.973	0.966	0.928	1.04	0.79	0.868	0.896	0.872	0.874	0.607	0.59	0.54	0.547	0.934	0.995	1.01	0.967	1.01
NCI-H1915	0.936	0.963	0.983	0.972	0.884	1.04	1.09	1.1	1.06	0.983	0.396	0.487	0.313	0.366	1.12	1.14	1.08	1.03	0.994
NCI-H1975	0.356	0.346	0.461	0.464	0.448	0.911	0.945	0.997	1.03	1.03	0.677	0.774	0.275	0.196	0.85	0.943	0.992	0.929	0.985
NCI-H1993	0.758	1.02	1.02	1.2	1.28		0.69	0.783	0.728	0.817	0.639	0.635	0.582	0.555	0.717	0.757	0.726	0.638	0.852
NCI-H2009	0.892	1.11	0.876	0.955	0.906	1.2	1.16	1.19	1.15	1.06	0.713	0.726	0.848	0.749	1.22	1.22	1.21	1.15	1.06
NCI-H2023	0.719	0.945	0.877	0.964	1.42		0.886	0.77	0.849	0.893	0.381	0.336	0.246	0.194	0.699	0.637	0.863	0.623	0.682
NCI-H2085	1.04	1.09	1.01	1.02	1.13	0.972	1.06	1.01	0.96	1.11	0.722	0.849	0.662	0.576	0.818	0.862	0.901	0.797	0.887
NCI-H2087	0.979	0.909	0.804	0.798	0.879	1.27	0.966	1.03	1.13	0.796	0.259	0.237	0.21	0.155	1.02	0.967	1.13	0.841	0.895
NCI-H2126	1.05	1.14	1.11	1.07	1.09	1.16	1.18	1.26	1.06	1.06	0.868	0.836	0.954	0.754	0.563	0.734	0.749	0.677	0.774
NCI-H2228	0.954	1.07	0.866	0.926	0.834	0.938	1.01	0.764	0.792	0.993	0.225	0.286	0.161	0.234	0.741	0.665	0.792	0.901	0.607
NCI-H2347			1.23	0.95	0.997			0.934	1.21	0.843	0.473	0.669	0.417	0.51	0.854	1.01	1.1	1.09	1.12
NCI-H2405	0.925	0.981	0.997	0.982	0.982	0.997	1.13	1.11	1.11	1.08	0.728	0.809	0.711	0.681	0.729	1.12	1	1.12	1.02
NCI-H3122	1.04	0.985	0.917	1.02	1.1	0.999	0.932	1.01	0.992	0.996	0.43	0.421	0.382	0.359	0.969	1.06	0.998	1.12	0.945
PC-3 [JPC-3]	0.957	0.948	0.814	0.868	0.774	1.05	1.01	1.12	1.06	0.995	0.851	0.822	0.951	0.824	0.993	0.972	0.961	0.918	0.961
PC-14	0.976	0.805	1.16	0.858	0.856	0.962	0.972	1.11	1.03	1	0.527	0.628	0.609	0.472	0.971	1	0.961	0.985	1
RERF-LC-KJ	1.03	1.05	1.05	1.16	1.04	0.844	0.859	0.857	0.86	0.792	0.476	0.474	0.405	0.281	0.889	0.912	0.825	0.782	0.912
SK-LU-1	1.15	1.08	1.23	1.37	1.27	0.872	0.988	0.884	0.851	0.809	0.349	0.419	0.321	0.218	1.02	1.22	1.17	1.27	1.11
SW 1573	0.945	1.14	1.08	1.09	1.17	0.83	0.938	0.934	0.998	0.998	0.202	0.16	0.162	0.176	0.716	0.798	0.817	0.935	1.01
UMC-11	0.668	0.988	0.781	0.662	0.976	0.958	1.16	1.19	1.07	1.13	0.193	0.223	0.209	0.217	0.974	1.06	1.1	1	1.11
